Columns and labels:
cyclo-oxygenase = test: enzyme assay (Blackwell and Flower), inhibition of cyclo-oxygenase; format: biochemical; details: read-out: ED50 Cyclo-oxygenase
lipoxygenase = test: enzyme assay (Blackwell and Flower), inhibition of lipoxygenase; format: biochemical; details: read-out: ED50 Lipoxygenase

Row | IC50 (cyclo-oxygenase) [µM] | IC50 (lipoxygenase) [µM] | Structure (SMILES)
1 | 1 | 1 | CNC(=S)NC1=NN(c2cccc(C(F)(F)F)c2)CC1 [Example 3, 3-(N^2-methylthioureido)-1-(3-trifluoromethylphenyl)-2-pyrazoline]
2 | 10 | 10 | CNC(=S)NC1=NN(c2cnc3ccccc3c2)CC1 [Example 13, 3-(3-Methylthioureido)-1-(3-quinolyl)-2-pyrazoline]
3 | 10 | 10 | CN=C(NC1=NN(c2ccc(Cl)cc2)CC1)SC [Example 9, N,S-dimethyl-N^2 -/1-(4-chlorophenyl)-2-pyrazoline-3-yl/isothiourea hydriodide]
4 | 3 | 5 to 10 | O=C(NC1=NN(c2cccc(C(F)(F)F)c2)CC1)Nc1ccccc1 [Example 1, 3-(N^2-phenylureido)-1-(3-trifluoromethylphenyl)-2-pyrazoline]
5 | 5 | 3 | CNC(=S)NC1=NN(c2ccc(Cl)cc2)CC1 [Example 6, 3-(3-methylthioureido)-1-(4-chlorophenyl)-2-pyrazoline]
6 | 3 | 3 | CNC(=O)NC1=NN(c2cccc(C(F)(F)F)c2)CC1 [Example 2, 3-(N^2-methylureido)-1-(3-trifluoromethylphenyl)-2-pyrazoline]
7 | 10 | 10 | CNC(=S)NC1=NN(c2ccccc2Cl)CC1 [Example 14, 1-(2-Chlorophenyl)-3-(3-methylthioureido)-2-pyrazoline]
8 | 1 | 1 | CN=C(NC1=NN(c2cccc(C(F)(F)F)c2)CC1)SC [Example 5, 3-(N^2,S-dimethylisothioureido)-1-(3-trifluoromethylphenyl)-2-pyrazoline hydriodide monohydrate]
9 | 10 | 10 | CCCCNC(=S)NC1=NN(c2cccc(C(F)(F)F)c2)CC1 [Example 8, 3-(3-butylthioureido)-1-(3-trifluoromethylphenyl)-2-pyrazoline]
10 | 1 | 1 | CN=C(NC1=NN(c2ccc3ccccc3c2)CC1)SC [Example 17, N^1,S-Dimethyl-N^2 -/1-(2-naphthyl)-2-pyrazolin-3-yl/isothiourea hydriodide]
11 | 0.25 | 1 | CNC(=S)NC1=NN(c2ccc3ccccc3c2)CC1 [Example 10, 3-(3-methylthioureido)-1-(2-naphthyl)-2-pyrazoline]

Reference: US4465685A, “Antiinflammatory pyrazole thioureas” (Burroughs Wellcome Co., priority 1980, dated 1984)
